From ChEMBL document CHEMBL5696442, “Discovery of type II inhibitors of TGFβ-activated kinase 1 (TAK1) and mitogen-activated protein kinase kinase kinase kinase 2 (MAP4K2)” (J Med Chem, 2015)
Active and inactive are the calls of the source. The calls are words filed in the database; no cut-off is given here.

Experiments:
[1] = target: Cyclin-dependent kinase 1 (Homo sapiens) (UniProt P06493); experiment: Inhibition of CDC2 Lys2 labeling site in human Huh-7 cell lysate at 1 uM by KiNativ Profiling analysis relative to control; assay type: subcellular
[2] = target: Wee1-like protein kinase (Homo sapiens) (UniProt P30291); experiment: Inhibition of Wee1 Lys2 labeling site in human Huh-7 cell lysate at 1 uM by KiNativ Profiling analysis relative to control; assay type: subcellular
[3] = target: Interleukin-1 receptor-associated kinase 3 (Homo sapiens) (UniProt Q9Y616); experiment: Inhibition of IRAK3 (unknown origin) at 10 uM by Ambit Kinomescan binding assay
[4] = target: cGMP-dependent protein kinase 1 (Homo sapiens) (UniProt Q13976); experiment: Inhibition of PRKG1 (unknown origin) at 10 uM by Ambit Kinomescan binding assay
[5] = target: Ribosomal protein S6 kinase alpha-1 (Homo sapiens) (UniProt Q15418); experiment: Inhibition of N-terminal RPS6KA1 kinase domain 1 (unknown origin) at 10 uM by Ambit Kinomescan binding assay
[6] = target: Cyclin-dependent kinase 8 (Homo sapiens) (UniProt P49336); experiment: Inhibition of CDK8 Lys2 labeling site in human A-375 cells at 0.5 uM by KiNativ Profiling analysis relative to control; assay type: cell-based
[7] = target: T1, Serine/threonine-protein kinase D3 (Homo sapiens) (UniProt O94806); experiment: Inhibition of PRKD3 (unknown origin) at 10 uM by Ambit Kinomescan binding assay
T1 sequence (whole entry): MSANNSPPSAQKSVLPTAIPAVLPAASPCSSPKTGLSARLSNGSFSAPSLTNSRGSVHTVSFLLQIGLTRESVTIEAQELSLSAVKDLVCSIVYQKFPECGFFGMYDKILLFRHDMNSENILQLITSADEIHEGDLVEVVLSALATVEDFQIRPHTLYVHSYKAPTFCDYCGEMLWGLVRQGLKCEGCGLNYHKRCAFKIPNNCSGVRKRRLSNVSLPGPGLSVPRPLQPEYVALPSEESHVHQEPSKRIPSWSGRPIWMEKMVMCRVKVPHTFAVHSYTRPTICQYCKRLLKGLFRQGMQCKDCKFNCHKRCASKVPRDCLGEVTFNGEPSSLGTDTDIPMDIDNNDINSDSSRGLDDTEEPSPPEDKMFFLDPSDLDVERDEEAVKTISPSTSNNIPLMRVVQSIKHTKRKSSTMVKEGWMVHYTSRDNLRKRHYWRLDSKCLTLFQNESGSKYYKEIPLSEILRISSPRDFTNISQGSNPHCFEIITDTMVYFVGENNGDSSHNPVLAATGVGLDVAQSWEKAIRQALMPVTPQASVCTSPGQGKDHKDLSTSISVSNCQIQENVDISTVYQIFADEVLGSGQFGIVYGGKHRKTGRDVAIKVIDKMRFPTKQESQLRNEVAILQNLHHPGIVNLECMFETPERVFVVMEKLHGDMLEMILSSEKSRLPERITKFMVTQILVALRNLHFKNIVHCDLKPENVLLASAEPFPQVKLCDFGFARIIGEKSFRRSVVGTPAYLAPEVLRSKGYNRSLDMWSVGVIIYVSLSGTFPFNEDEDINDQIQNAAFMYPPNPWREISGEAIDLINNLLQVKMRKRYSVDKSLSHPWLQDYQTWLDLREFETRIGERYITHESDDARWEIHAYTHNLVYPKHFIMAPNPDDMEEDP

[8] = target: T2, Serine/threonine-protein kinase LATS1 (Homo sapiens) (UniProt O95835); experiment: Inhibition of LATS1 Lys2 labeling site in human A-375 cells at 0.5 uM by KiNativ Profiling analysis relative to control; assay type: cell-based
T2 sequence (whole entry): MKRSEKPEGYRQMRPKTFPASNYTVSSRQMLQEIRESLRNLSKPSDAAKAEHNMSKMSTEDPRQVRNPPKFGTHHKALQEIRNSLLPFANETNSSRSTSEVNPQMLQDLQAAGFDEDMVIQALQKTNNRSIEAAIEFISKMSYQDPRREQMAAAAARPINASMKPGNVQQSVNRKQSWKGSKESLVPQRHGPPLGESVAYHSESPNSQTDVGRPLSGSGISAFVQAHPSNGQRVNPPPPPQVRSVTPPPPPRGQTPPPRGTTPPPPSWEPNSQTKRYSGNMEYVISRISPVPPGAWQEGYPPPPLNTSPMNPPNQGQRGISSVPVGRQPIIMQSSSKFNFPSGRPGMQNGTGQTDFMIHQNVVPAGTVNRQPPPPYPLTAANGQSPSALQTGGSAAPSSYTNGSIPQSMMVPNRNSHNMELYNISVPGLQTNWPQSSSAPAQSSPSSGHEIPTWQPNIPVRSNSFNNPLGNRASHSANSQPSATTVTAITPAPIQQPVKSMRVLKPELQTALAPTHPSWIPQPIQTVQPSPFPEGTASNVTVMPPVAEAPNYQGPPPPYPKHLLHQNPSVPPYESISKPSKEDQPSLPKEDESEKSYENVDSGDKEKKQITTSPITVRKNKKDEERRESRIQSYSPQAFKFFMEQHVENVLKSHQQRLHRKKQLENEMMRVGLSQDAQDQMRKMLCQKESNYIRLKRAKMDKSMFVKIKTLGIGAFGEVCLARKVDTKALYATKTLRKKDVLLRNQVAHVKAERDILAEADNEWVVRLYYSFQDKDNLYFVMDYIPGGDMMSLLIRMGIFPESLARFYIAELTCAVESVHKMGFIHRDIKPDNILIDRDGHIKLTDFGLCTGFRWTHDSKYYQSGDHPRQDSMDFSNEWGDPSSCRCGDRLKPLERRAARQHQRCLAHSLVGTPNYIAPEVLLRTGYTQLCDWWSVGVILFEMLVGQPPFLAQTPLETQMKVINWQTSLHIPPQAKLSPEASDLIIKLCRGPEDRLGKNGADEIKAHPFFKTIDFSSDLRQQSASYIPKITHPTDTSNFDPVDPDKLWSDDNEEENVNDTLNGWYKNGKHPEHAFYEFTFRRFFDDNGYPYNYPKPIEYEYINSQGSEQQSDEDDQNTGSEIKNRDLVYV

[9] = target: Casein kinase I isoform gamma-2 (Homo sapiens) (UniProt P78368); experiment: Inhibition of CSNK1G2 (unknown origin) at 10 uM by Ambit Kinomescan binding assay
[10] = target: Glycogen synthase kinase-3 beta (Homo sapiens) (UniProt P49841); experiment: Inhibition of GSK3B Lys2 labeling site in human A-375 cells at 5 uM by KiNativ Profiling analysis relative to control; assay type: cell-based
[11] = target: Putative phosphatidylinositol 4-kinase alpha-like protein P2 (Homo sapiens) (UniProt A4QPH2); experiment: Inhibition of PI4KAP2 ATP labeling site in human A-375 cells at 0.05 uM by KiNativ Profiling analysis relative to control; assay type: cell-based
[12] = target: Protein kinase C delta type (Homo sapiens) (UniProt Q05655); experiment: Inhibition of PRKCD (unknown origin) at 1 uM by Ambit Kinomescan binding assay relative to control; values are per cent of control
Sequence of Protein kinase C delta type (Homo sapiens) (Q05655 whole entry, looked up): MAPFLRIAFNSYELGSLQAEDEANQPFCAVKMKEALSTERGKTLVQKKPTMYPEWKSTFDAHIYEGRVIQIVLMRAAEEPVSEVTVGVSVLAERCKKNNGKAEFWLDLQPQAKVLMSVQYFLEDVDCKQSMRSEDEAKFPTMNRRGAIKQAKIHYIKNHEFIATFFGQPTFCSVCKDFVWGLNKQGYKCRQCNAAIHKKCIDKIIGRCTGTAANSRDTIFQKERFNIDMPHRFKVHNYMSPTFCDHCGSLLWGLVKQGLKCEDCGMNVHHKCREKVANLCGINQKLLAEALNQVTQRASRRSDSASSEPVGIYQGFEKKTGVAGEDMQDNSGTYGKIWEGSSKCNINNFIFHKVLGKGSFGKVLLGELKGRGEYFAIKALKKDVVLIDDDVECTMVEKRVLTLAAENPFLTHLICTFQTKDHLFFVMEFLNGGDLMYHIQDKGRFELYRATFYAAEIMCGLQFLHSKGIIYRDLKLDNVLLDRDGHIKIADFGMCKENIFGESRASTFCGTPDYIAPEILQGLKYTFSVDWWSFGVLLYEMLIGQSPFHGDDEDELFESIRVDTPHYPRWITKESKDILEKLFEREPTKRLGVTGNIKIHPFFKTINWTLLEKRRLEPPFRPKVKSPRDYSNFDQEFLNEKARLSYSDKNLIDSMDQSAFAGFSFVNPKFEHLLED

Sequence of Wee1-like protein kinase (Homo sapiens) (P30291 whole entry, looked up): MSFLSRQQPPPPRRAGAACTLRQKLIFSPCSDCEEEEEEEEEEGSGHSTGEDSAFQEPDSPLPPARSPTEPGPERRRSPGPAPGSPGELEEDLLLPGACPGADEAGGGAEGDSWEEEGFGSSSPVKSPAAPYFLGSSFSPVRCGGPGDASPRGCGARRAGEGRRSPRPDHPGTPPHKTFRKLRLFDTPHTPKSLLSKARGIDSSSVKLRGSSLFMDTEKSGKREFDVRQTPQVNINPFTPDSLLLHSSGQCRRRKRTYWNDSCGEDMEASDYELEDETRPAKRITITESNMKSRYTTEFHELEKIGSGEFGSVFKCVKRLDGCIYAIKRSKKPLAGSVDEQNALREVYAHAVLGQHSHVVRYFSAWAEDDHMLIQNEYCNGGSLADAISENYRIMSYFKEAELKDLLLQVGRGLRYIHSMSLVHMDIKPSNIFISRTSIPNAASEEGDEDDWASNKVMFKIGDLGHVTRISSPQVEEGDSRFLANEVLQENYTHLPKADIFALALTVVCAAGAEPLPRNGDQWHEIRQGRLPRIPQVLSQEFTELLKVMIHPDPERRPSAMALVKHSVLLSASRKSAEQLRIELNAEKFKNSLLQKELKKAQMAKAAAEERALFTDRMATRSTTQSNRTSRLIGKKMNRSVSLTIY
Sequence of Casein kinase I isoform gamma-2 (Homo sapiens) (P78368 whole entry, looked up, canonical isoform): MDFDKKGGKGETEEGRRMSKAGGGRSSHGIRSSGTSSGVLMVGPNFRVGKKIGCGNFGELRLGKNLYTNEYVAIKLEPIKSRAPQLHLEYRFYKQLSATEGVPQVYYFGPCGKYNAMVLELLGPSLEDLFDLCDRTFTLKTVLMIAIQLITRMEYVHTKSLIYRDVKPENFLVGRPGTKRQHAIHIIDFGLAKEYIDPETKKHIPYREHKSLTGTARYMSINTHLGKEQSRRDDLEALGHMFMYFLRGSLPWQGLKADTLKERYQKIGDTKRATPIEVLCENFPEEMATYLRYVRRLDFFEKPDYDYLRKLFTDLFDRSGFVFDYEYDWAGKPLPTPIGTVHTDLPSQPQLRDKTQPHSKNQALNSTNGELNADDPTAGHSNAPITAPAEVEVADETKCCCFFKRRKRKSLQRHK
Sequence of Putative phosphatidylinositol 4-kinase alpha-like protein P2 (Homo sapiens) (A4QPH2 whole entry): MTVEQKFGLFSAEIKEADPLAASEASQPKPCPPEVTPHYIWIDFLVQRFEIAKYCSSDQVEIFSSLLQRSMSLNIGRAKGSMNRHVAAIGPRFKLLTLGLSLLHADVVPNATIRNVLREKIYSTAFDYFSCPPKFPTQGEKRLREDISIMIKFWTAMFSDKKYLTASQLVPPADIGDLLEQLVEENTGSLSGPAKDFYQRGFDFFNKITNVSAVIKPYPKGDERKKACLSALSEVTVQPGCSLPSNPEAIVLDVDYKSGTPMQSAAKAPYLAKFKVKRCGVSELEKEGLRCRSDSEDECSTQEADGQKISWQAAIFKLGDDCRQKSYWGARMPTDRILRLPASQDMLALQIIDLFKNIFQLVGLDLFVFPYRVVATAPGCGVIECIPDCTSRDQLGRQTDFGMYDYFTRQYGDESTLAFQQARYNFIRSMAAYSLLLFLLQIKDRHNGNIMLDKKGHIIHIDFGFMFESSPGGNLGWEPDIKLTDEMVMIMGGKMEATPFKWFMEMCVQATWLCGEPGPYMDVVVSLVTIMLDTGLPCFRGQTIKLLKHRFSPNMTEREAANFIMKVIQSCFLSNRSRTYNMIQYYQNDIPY
Sequence of Cyclin-dependent kinase 1 (Homo sapiens) (P06493 whole entry, looked up): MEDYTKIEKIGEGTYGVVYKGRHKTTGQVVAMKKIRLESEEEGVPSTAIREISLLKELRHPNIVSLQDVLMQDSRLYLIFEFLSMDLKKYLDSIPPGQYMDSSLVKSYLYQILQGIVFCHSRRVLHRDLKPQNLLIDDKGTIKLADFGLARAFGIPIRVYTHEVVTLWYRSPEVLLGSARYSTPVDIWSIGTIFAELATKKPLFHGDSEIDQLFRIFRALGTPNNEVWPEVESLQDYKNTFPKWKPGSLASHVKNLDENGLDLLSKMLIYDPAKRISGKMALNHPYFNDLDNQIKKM
Sequence of Interleukin-1 receptor-associated kinase 3 (Homo sapiens) (Q9Y616 whole entry): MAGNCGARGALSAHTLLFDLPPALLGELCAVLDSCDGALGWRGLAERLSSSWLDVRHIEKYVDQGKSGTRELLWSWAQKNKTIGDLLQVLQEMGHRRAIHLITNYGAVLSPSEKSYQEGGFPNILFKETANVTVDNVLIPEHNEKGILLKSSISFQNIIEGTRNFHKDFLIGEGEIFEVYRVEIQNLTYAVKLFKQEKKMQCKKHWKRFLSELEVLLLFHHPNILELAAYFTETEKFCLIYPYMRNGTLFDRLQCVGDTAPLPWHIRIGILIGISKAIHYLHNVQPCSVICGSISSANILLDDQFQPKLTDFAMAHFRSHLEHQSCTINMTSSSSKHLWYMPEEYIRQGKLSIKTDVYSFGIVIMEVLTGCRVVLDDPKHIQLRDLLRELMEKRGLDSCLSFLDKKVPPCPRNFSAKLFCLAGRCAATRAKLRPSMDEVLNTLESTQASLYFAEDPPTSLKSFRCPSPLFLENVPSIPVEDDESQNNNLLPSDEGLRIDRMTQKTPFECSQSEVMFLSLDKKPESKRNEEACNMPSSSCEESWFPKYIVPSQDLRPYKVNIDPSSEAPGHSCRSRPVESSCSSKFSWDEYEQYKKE
Sequence of Ribosomal protein S6 kinase alpha-1 (Homo sapiens) (Q15418 whole entry, the tested form may be a part): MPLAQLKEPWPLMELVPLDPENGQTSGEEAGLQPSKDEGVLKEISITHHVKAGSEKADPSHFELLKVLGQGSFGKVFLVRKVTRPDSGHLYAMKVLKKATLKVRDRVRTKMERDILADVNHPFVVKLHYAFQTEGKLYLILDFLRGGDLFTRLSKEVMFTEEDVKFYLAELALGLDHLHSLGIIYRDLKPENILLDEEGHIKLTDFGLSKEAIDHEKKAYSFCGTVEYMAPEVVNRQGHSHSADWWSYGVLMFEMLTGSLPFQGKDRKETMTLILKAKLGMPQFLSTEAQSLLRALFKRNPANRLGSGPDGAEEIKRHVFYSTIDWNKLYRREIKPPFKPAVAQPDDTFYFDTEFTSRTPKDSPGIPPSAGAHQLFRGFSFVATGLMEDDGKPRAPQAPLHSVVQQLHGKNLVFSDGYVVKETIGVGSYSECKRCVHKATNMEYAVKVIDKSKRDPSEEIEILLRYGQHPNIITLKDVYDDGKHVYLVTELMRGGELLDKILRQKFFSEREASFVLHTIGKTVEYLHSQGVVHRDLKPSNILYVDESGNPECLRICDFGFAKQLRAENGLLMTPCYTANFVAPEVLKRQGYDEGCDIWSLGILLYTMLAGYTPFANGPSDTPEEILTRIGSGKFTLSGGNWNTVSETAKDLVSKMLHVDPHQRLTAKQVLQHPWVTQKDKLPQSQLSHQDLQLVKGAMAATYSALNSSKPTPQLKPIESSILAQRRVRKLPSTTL
Sequence of cGMP-dependent protein kinase 1 (Homo sapiens) (Q13976 whole entry, the tested form may be a part): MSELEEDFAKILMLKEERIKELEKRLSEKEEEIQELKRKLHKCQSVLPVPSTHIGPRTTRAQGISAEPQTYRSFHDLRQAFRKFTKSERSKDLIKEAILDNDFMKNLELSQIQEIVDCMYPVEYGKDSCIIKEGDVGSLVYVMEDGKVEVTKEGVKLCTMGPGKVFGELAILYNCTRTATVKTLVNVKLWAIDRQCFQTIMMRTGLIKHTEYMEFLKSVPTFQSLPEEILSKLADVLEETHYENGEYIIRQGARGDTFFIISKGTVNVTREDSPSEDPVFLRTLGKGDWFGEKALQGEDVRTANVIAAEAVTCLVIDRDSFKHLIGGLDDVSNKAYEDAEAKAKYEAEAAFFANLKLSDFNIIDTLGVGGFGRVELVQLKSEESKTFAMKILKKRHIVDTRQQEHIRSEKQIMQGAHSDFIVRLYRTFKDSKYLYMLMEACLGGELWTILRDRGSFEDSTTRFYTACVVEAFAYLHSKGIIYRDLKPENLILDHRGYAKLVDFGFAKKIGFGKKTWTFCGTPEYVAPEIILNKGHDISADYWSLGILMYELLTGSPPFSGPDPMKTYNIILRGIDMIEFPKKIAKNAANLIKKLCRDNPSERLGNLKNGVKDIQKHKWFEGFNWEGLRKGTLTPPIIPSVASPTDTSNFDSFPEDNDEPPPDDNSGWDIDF

Q: How did the inhibition [1] turn out when `CNc1cc(Oc2cc(C(=O)Nc3cc(N4CCN(C)CC4)cc(C(F)(F)F)c3)ccc2C)ncn1` was run?
A: 0.4%

Q: What about the inhibition [2] of the same molecule?
A: -4.1%

Q: What does the source list for `CCN1CCN(Cc2ccc(NC(=O)c3ccc(C)c(Oc4ccnc5[nH]ccc45)c3)cc2C(F)(F)F)CC1`?
A: inhibition [3]: inactive; inhibition [4]: inactive; inhibition [5]: inactive; inhibition [6]: 51.2%; inhibition [7]: inactive; inhibition [8]: -1.1%; inhibition [9]: inactive

Q: With `CCN1CCN(Cc2ccc(NC(=O)c3ccc(C)c(/C=C/c4cnc5[nH]ccc5c4OC)c3)cc2C(F)(F)F)CC1` as the molecule, how does the inhibition [10] read?
A: 34.6%

Q: What about the inhibition [11] of the same molecule?
A: 0.8%

Q: And the residual activity [12]?
A: 60%
